US8389500B2, “Fused heterocyclic compounds as ion channel modulators” (Gilead Sciences, Inc., priority 2008, dated 2013)

Tests used:
hERG potassium channel = target: T1, hERG potassium channel (Homo sapiens, UniProt Q12809); test: hERG screening assay (PatchXpress patch clamp, CHO cells); type: cell-based; conditions: hERG in CHO cells, peak current at −50 mV; for hERG Patch Clamp hERG % blk 1 μm: 1 μm test compound; for hERG Patch Clamp hERG % blk 10 μm: 10 μm test compound
T1 construct: expressed in transfected cells; host or cells: CHO (Chinese Hamster Ovary)
T1 sequence (Q12809 whole entry): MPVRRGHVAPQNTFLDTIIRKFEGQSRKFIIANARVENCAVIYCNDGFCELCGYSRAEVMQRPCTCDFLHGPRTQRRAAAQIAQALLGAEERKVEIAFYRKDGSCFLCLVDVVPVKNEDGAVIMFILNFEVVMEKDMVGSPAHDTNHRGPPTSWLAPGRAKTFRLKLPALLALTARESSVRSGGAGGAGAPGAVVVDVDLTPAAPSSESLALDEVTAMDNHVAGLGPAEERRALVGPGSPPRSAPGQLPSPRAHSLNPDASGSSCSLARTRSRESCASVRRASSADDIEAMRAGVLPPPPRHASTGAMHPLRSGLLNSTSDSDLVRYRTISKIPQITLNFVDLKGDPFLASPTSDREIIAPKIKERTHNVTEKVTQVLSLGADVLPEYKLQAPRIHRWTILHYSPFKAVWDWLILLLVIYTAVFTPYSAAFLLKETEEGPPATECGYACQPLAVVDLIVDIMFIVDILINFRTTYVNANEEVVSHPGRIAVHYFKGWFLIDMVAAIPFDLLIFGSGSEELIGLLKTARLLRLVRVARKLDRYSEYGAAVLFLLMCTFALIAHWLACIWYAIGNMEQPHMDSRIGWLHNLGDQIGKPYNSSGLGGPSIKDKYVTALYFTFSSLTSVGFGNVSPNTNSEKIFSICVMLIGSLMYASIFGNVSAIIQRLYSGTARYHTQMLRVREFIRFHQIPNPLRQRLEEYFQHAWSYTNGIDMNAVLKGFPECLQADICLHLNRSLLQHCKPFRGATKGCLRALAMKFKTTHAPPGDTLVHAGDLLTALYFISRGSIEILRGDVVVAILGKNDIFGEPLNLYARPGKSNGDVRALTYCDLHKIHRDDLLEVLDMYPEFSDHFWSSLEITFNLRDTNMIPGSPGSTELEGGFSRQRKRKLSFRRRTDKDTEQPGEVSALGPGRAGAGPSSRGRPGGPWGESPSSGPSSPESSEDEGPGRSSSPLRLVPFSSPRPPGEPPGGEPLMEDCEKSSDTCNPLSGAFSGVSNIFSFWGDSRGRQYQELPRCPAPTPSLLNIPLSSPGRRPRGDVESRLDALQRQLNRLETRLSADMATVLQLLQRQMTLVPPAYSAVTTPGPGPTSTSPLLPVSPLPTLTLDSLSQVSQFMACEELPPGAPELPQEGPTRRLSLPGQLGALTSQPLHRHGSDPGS
Procedure: Compounds were screened to test their activity in blocking the hERG potassium channel. The hERG channel is heterologously expressed in a CHO (Chinese Hamster Ovary) cell line. Cells are maintained with standard tissue culture procedures and stable channel expression is maintained with 500 μg/ml G418 in the culture medium. Cells are harvested for testing on the PatchXpress automated patch clamp with Accumax (Innovative Cell Technologies, San Diego, Calif.) to isolate single cells.
The following solutions are used for electrophysiological recordings. The external solution contains: 2 mM CaCl2; 2 mM MgCl2; 4 mM KCl; 150 mM NaCl; 10 mM Glucose; 10 mM HEPES (pH 7.4 with 1M NaOH, osmolarity). The internal solution contains: 140 mM KCl, 10 mM MgCl2, 6 mM EGTA, 5 mM HEPES, 5 mM ATP (pH adjusted to 7.25 with KOH).
hERG channels are activated when the voltage is stepped to +20 mV from the −80 mV holding potential. During a 5 second step at +20 mV, the channels activate and then largely inactivate, so the currents are relatively small. Upon returning to −50 mV from +20 mV, hERG currents transiently become much larger as inactivation is rapidly removed and then the channel closes. The first step to −50 mV for 300 ms is used as a baseline for measuring the peak amplitude during the step to −50 mV after channel activation. The peak current at −50 mV is measured both under control conditions and after addition of compound.
All compounds are prepared as 10 mM DMSO stocks in glass vials. Stock solutions are mixed by vigorous vortexing and sonication for about 2 minutes at room temperature. For testing, compounds are diluted in glass vials using an intermediate dilution step in pure DMSO and then further diluted to working concentrations in external solution. Dilutions are prepared no longer than 20 minutes before use.
After achieving the whole-cell configuration, cells are monitored for 90 seconds to assess stability and washed with external solution for 66 seconds. The voltage protocol described above is then applied to the cells every 12 seconds and throughout the whole procedure. Only cells with stable recording parameters and meeting specified health criteria are allowed to enter the compound addition procedure.
External solution containing 0.1% DMSO (vehicle) is applied to the cells first to establish the control peak current amplitude. After allowing the current to stabilize for 3 to 5 minutes, 1 μM and then 10 μM test compounds are applied. Each compound concentration is added 4 times and cells are kept in test solution until the effect of the compound reaches steady state or for a maximum of 12 minutes. After addition of test compound, a positive control (1 μM Cisapride) is added and must block >95% of the current for the experiment to be considered valid. Washout in the external solution compartment is performed until the recovery of the current reaches steady state. Data are analyzed using DataXpress, Clampfit (Molecular Devices, Inc., Sunnyvale) and Origin 7 (Originlab Corp.)

[1] = target: T2, wild-type human cardiac sodium channel, hNav1.5 (late sodium current) (Homo sapiens, UniProt Q14524); test: Late INa screening assay (PatchXpress whole cell patch clamp); type: cell-based; conditions: HEK293 hNav1.5, late INa generated with 10 μM Tefluthrin (some experiments 50 nM ATX II); for inhibition at 10 µM: 10 μM test compound, read-out: Late INa % blk (10 μM test cmpd); for inhibition at 1 µM: 1 μM test compound, read-out: Late INa % blk (1 μM test cmpd)
T2 construct: host or cells: HEK293
T2 sequence (Q14524 whole entry): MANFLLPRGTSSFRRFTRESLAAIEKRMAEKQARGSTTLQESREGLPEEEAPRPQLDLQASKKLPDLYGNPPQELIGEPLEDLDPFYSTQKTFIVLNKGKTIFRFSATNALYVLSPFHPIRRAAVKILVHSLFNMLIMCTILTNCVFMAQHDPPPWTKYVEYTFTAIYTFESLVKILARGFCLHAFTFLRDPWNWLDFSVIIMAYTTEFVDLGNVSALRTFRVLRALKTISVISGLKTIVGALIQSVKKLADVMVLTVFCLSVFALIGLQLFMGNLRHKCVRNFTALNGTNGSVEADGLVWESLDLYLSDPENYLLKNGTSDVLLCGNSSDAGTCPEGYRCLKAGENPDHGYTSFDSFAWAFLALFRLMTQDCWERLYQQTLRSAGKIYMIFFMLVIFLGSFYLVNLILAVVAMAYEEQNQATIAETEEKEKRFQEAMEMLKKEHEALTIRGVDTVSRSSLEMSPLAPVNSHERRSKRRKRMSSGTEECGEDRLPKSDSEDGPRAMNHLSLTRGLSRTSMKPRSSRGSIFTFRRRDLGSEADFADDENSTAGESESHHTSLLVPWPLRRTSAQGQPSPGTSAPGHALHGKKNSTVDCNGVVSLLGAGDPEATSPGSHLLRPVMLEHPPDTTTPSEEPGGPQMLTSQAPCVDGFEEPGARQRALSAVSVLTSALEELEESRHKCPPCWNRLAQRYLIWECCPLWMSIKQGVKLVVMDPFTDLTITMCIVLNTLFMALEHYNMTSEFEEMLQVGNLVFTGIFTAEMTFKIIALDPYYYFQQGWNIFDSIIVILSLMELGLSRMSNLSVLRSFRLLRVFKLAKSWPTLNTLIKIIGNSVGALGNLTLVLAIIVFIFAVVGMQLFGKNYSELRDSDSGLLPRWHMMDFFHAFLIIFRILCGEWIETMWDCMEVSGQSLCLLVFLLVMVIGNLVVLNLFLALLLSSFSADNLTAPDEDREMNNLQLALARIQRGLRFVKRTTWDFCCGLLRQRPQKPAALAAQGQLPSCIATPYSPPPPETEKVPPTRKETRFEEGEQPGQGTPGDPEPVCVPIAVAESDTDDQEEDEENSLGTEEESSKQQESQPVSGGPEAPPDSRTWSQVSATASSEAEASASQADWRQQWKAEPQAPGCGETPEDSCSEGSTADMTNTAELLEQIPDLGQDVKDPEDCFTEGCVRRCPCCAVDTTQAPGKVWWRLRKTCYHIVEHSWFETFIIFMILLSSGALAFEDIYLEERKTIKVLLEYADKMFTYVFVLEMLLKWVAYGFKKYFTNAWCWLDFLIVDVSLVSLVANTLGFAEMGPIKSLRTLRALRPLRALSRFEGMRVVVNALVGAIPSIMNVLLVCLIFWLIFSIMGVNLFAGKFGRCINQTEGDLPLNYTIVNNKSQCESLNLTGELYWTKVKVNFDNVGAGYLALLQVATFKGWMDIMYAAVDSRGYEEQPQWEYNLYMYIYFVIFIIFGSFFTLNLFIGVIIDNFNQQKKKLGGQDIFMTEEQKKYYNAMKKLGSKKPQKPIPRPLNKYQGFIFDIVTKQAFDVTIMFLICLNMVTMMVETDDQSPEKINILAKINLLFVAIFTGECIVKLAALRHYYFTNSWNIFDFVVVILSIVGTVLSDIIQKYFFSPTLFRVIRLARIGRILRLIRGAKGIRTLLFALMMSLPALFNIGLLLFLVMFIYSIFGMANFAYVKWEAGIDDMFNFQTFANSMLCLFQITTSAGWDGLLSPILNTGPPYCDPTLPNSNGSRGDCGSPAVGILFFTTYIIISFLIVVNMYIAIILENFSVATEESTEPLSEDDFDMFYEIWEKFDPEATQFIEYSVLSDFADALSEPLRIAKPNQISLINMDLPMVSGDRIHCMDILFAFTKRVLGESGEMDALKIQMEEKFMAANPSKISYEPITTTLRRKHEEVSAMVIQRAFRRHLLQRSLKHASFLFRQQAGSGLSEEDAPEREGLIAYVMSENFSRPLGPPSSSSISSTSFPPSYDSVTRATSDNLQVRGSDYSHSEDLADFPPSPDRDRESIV
Outline: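 Late sodium current block was assessed by automated whole cell patch clamp on a PatchXpress 7000A using HEK293 cells stably expressing wild-type human hNav1.5 without beta subunits. Late current was induced with 10 μM Tefluthrin or 50 nM ATX II. Channels were stepped from −120 mV to −20 mV for 250 ms at 0.1 Hz at 24-27° C. Current was normalized to 0Na baseline and expressed as percent block.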

| SMILES | hERG Patch Clamp hERG % blk 1 μm (hERG potassium channel) [%] | hERG Patch Clamp hERG % blk 10 μm (hERG potassium channel) [%] | inhibition at 10 µM [1] [%] | inhibition at 1 µM [1] [%] |
| --- | --- | --- | --- | --- |
| CS(=O)(=O)Nc1ccc(-c2ccc(C(F)(F)F)cc2)c(Cl)c1 [PT-018, N-[2-chloro-4′-(trifluoromethyl)biphenyl-4-yl]methanesulfonamide] | 10 | 10 | 50.6 |  |
| CS(=O)(=O)Nc1ccc(-c2ccccc2OC(F)(F)F)c(Cl)c1 [PT-022, N-[2-chloro-2′-(trifluoromethoxy)biphenyl-4-yl]methanesulfonamide] | 10 | 92 | 54.8 |  |
| CCS(=O)(=O)Nc1ccc(-c2ccc(Cl)c(F)c2)c(Cl)c1 [PT-026, N-(2,4′-dichloro-3′-fluorobiphenyl-4-yl)ethanesulfonamide] | 10 | 10 | 78.5 | 33.8 |
| CS(=O)(=O)Nc1ccc(-c2ccc(Oc3ccccc3)cc2)cc1Cl [PT-034, N-(3-chloro-4′-phenoxybiphenyl-4-yl)methanesulfonamide] | 10 | 10 | 69.7 | 25.9 |
| Cc1cc(NS(C)(=O)=O)ccc1-c1cccc(OC(F)(F)F)c1 [PT-040, N-[2-methyl-3′-(trifluoromethoxy)biphenyl-4-yl]methanesulfonamide] | 10 | 25 | 68.3 | 32.5 |
| O=S(=O)(Nc1ccc(-c2cccc(OC(F)(F)F)c2)c(Cl)c1)C1CC1 [PT-047, N-[2-chloro-3′-(trifluoromethoxy)biphenyl-4-yl]cyclopropanesulfonamide] | 10 | 28.5 | 77.7 | 48.6 |
| O=S(=O)(Nc1ccc(-c2ccc(F)c(Cl)c2)c(Cl)c1)C1CC1 [PT-049, N-(2,3′-dichloro-4′-fluorobiphenyl-4-yl)cyclopropanesulfonamide] | 10 | 32 | 60.1 |  |
| O=S(=O)(Nc1ccc(-c2ccc(OC(F)(F)F)cc2)c(Cl)c1)C1CC1 [PT-050, N-[2-chloro-4′-(trifluoromethoxy)biphenyl-4-yl]cyclopropanesulfonamide] | 2 | 47.5 | 61 |  |
| O=S(=O)(Nc1ccc(-c2cccc(OC(F)(F)F)c2)cc1)C1CC1 [PT-060, N-[3′-(trifluoromethoxy)biphenyl-4-yl]cyclopropanesulfonamide] | 10 | 35.5 | 54.4 |  |
| Cc1cc(N(CC(=O)O)S(C)(=O)=O)ccc1-c1ccc(Oc2ccccc2)cc1 [PT-082, N-(2-methyl-4′-phenoxybiphenyl-4-yl)-N-(methylsulfonyl)glycine] | 10 | 10 | 19.9 |  |
| Cc1cc(N(Cc2ccc(C(=O)O)cc2)S(C)(=O)=O)ccc1-c1ccc(Oc2ccccc2)cc1 [PT-108, 4-{[(2-methyl-4′-phenoxybiphenyl-4-yl)(methylsulfonyl)amino]methyl}benzoic acid] | 10 | 10 | 55.6 |  |
| Cc1cc(N(Cc2cccc(C(=O)O)c2)S(C)(=O)=O)ccc1-c1ccc(Oc2ccccc2)cc1 [PT-112, 3-{[(2-methyl-4′-phenoxybiphenyl-4-yl)(methylsulfonyl)amino]methyl}benzoic acid] | 10 | 21.5 | 35.5 |  |
